Data reported in publication PMC5674221, “Harnessing fungal nonribosomal cyclodepsipeptide synthetases for mechanistic insights and tailored engineering” (Chemical Science, 2017).
pIC50: −log10 of the molar value. Where two headings read alike, the source gives them in different places.

What was measured:
[1] = in vitro; details: rat
Procedure: (§1) Bioactivity assays. Purified octa-enniatin B, octa-beauvericin and hexa-bassianolide were tested for antiparasitic, antibacterial and antifungal bioactivity together with standards of enniatin B, beauvericin and bassianolide. […]
67/L82 (host free axenic amastigotes) to determine the IC50 values as previously described by Orhan et al. (2010) (Supplementary Table 4).9 Additionally, cytotoxicity was determined with an L6 rat-derived cell line (Supplementary Table 4). […]
Supplementary Table 4: Antiparasitic activity and cytotoxicity of natural and hybrid CDPs. […]
(§2) Cytotoxicity was analyzed with rat-derived L6 cells. […]

[2] = test system: Leishmania donovani MHOM-ET-67/L82 (host free axenic amastigotes); assay: microbe, parasite or virus in culture; details: for pIC50: read-out: IC50 Leishmania donovani
Procedure: as §1
(§3) Supplementary Table 4: Antiparasitic activity and cytotoxicity of natural and hybrid CDPs. Antiparasitic activity was analyzed against Trypanosoma brucei rhodesiense STIB 900 (trypomastigotes), Trypanosoma cruzi Tulahuen C4 (amastigotes) and Leishmania donovani MHOM-ET-67/L82 (host free axenic amastigotes) as IC50-values. […]

[3] = test system: Penicillium notatum STI:50164; assay: Antifungal inhibition zone test, P. notatum; format: cell-based; details: JMRC-No. STI:50164; Supplementary Table 6; solvent gave 10
Procedure: as §1
(§4) Table 5). Antifungal activity was determined against Sporobolomyces salmonicolor […]
(§5) Aspergillus fumigatus Afum:00073 = ATCC46645 (Supplementary Table 6). The bacterial and fungal test strains are deposited at the Jena Microbial Resource Collection at www.jmrc.hki-jena.de. Activity was determined based on inhibition zone diameters in […]
(§6) (antifungal) in accordance to Krieg et al. (2017).10 […]
(§7) p- Colonies in inhibition zone
(§8) P- Many colonies in inhibition zone
(§9) F- Promotion of inhibition zone
(§10) A- Intimation of inhibition
(§11) Supplementary Table 6: Antifungal activity of natural and hybrid CDPs. Activity was analyzed by comparison of inhibition zone diameters.

[4] = test system: Trypanosoma cruzi Tulahuen C4 (amastigotes); assay: microbe, parasite or virus in culture; details: for fold lower IC50 against T. cruzi than the reference drug benznidazole: given as 'up to'; for pIC50: read-out: IC50 Trypanosoma cruzi
Procedure: Bioactivity assays. Purified octa-enniatin B, octa-beauvericin and hexa-bassianolide were tested for antiparasitic, antibacterial and antifungal bioactivity together with standards of enniatin B, beauvericin and bassianolide. Antiparasitic activity assays were performed against Trypanosoma brucei rhodesiense STIB 900 (trypomastigotes), Trypanosoma cruzi Tulahuen C4 (amastigotes) and Leishmania donovani MHOM-ET-67/L82 (host free axenic amastigotes) to determine the IC50 values as previously described by Orhan et al. (2010) (Supplementary Table 4).9 Additionally, cytotoxicity was determined with an L6 rat-derived cell line (Supplementary Table 4). […]
Supplementary Table 4: Antiparasitic activity and cytotoxicity of natural and hybrid CDPs. Antiparasitic activity was analyzed against Trypanosoma brucei rhodesiense STIB 900 (trypomastigotes), Trypanosoma cruzi Tulahuen C4 (amastigotes) and Leishmania donovani MHOM-ET-67/L82 (host free axenic amastigotes) as IC50-values.
as §2

[5] = test system: Staphylococcus aureus ST:33793; assay: Antibacterial inhibition zone test, S. aureus; format: cell-based; details: JMRC-No. ST:33793; Supplementary Table 5
Procedure: as §1
(§12) For antibacterial testing, the following strains were used: Bacillus subtilis STI:10880, Psudomonas aeruginosa ST:337721 (multi-resistent), Staphylococcus aureus ST:33793, Enterococcus faecalis ST:33700 (vancomycin-resistent) and Mycobacterium vaccae STI:10670 (Supplementary […]
as §5, §6
(§13) Supplementary Table 5: Antibacterial activity of natural and hybrid CDPs. Activity was analyzed by comparison of inhibition zone diameters. […]
as §7, §8, §9
(§14) A- Intimation of inhibition […]

[6] = test system: Bacillus subtilis STI:10880; assay: Antibacterial inhibition zone test, B. subtilis; format: cell-based; details: JMRC-No. STI:10880; Supplementary Table 5
Procedure: as §1, §12, §5, §6, §13, §7, §8, §9, §14

[7] = test system: Enterococcus faecalis ST:33700 (vancomycin-resistent); format: cell-based; details: JMRC-No. ST:33700; Supplementary Table 5
Procedure: as §1, §12, §5, §6, §13, §7, §8, §9, §14

[8] = test system: Trypanosoma brucei rhodesiense STIB 900 (trypomastigotes); assay: microbe, parasite or virus in culture
Procedure: as §1, §3

[9] = test system: Mycobacterium vaccae STI:10670; assay: Antibacterial inhibition zone test, M. vaccae; format: cell-based; details: JMRC-No. STI:10670; Supplementary Table 5
Procedure: as §1, §12, §5, §6, §13, §7, §8, §9, §14

[10] = test system: Pseudomonas aeruginosa ST:337721 (multi-resistent); assay: Antibacterial inhibition zone test, P. aeruginosa; format: cell-based; details: JMRC-No. ST:337721; Supplementary Table 5; solvent gave 10
Procedure: as §1, §12, §5, §6, §13, §7, §8, §9, §14

[11] = test system: Sporobolomyces salmonicolor ST:35974; assay: Antifungal inhibition zone test, S. salmonicolor; format: cell-based; details: JMRC-No. ST:35974; Supplementary Table 6; solvent gave 10
Procedure: as §1, §4, §5, §6, §7, §8, §9, §10, §11

[12] = test system: Candida albicans STI:25000; assay: Antifungal inhibition zone test, C. albicans; format: cell-based; details: JMRC-No. STI:25000; Supplementary Table 6
Procedure: as §1, §4, §5, §6, §7, §8, §9, §10, §11

[13] = test system: Aspergillus fumigatus Afum:00073 = ATCC46645; assay: Antifungal inhibition zone test, A. fumigatus; format: cell-based; details: JMRC-No. ATCC 46645; Supplementary Table 6
Procedure: as §1, §4, §5, §6, §7, §8, §9, §10, §11

[14] = Tulahuen C4, amastigotes, Supplementary Table 4 and main text
[15] = MHOM-ET-67/L82, host free axenic amastigotes, Supplementary Table 4 and main text
[16] = read-out: IC50 Trypanosoma b. rhodesiense, STIB 900, trypomastigotes, Supplementary Table 4

SMILES	pIC50 [1]	pIC50 ([2]; Leishmania donovani)	Inhibition zone diameter, Penicillium notatum [3]	fold lower IC50 against T. cruzi than the reference drug benznidazole [4]	pIC50 [4, 14]	Inhibition zone diameter, Staphylococcus aureus [5]	Inhibition zone diameter, Bacillus subtilis [6]	Inhibition zone diameter, Enterococcus faecalis (vancomycin-resistent) [7]	pIC50 [2, 15]	pIC50 [8, 16]	Inhibition zone diameter, Mycobacterium vaccae [9]	Inhibition zone diameter, Pseudomonas aeruginosa (multi-resistent) [10]	Inhibition zone diameter, Sporobolomyces salmonicolor [11]	Inhibition zone diameter, Candida albicans [12]	Inhibition zone diameter, Aspergillus fumigatus [13]	pIC50 ([8]; Trypanosoma brucei, RHODESIENSE|STIB900, read-out: IC50 Trypanosoma b. rhodesiense)	pIC50 ([4]; Trypanosoma cruzi, TULAHUEN)	activity against Trypanosoma cruzi (in words) [4]	activity against Leishmania donovani (in words) [2]	activity against Trypanosoma b. rhodesiense (in words) [8]
CCCCCCCCCCCCCCCCOP(=O)([O-])OCC[N+](C)(C)C [Miltefosine, miltefosine]	3.86	6.24																		
CC(C)[C@H]1OC(=O)[C@H](Cc2ccccc2)N(C)C(=O)[C@@H](C(C)C)OC(=O)[C@H](Cc2ccccc2)N(C)C(=O)[C@@H](C(C)C)OC(=O)[C@H](Cc2ccccc2)N(C)C(=O)[C@@H](C(C)C)OC(=O)[C@H](Cc2ccccc2)N(C)C1=O [octa-beauvericin]	5.80		0	up to 12 fold	6.27	0	0	0	6.84	6.11	12p	0	0	0						
O=C(O)c1cn(C2CC2)c2cc(N3CCNCC3)c(F)cc2c1=O [Ciprofloxacin, ciprofloxacin]						0	29				20p									
CC(C)[C@H]1OC(=O)[C@H](Cc2ccccc2)N(C)C(=O)[C@@H](C(C)C)OC(=O)[C@H](Cc2ccccc2)N(C)C(=O)[C@@H](C(C)C)OC(=O)[C@H](Cc2ccccc2)N(C)C1=O [beauvericin]	5.71		14p		6.12	13	18	18F	6.51	5.79	27	14P	0	0						
C[C@@H]1[C@H](O)[C@@H](C)/C=C/C=C/C=C/C=C/C=C/C=C/C=C/[C@H](O[C@@H]2O[C@H](C)[C@@H](O)[C@H](N)[C@@H]2O)C[C@@H]2O[C@](O)(C[C@@H](O)C[C@@H](O)[C@H](O)CC[C@@H](O)C[C@@H](O)CC(=O)O[C@H]1C)C[C@H](O)[C@H]2C(=O)O [Amphotericin B, amphotericin B]			18p										18p	20	20					
CC(C)[C@H]1C(=O)O[C@H](C(C)C)C(=O)N(C)[C@@H](C(C)C)C(=O)O[C@H](C(C)C)C(=O)N(C)[C@@H](C(C)C)C(=O)O[C@H](C(C)C)C(=O)N(C)[C@@H](C(C)C)C(=O)O[C@H](C(C)C)C(=O)N1C [octa-enniatin B]	5.41			up to 12 fold	5.76				7.15	6.06										
CC(C)C[C@H]1C(=O)O[C@H](C(C)C)C(=O)N(C)[C@@H](CC(C)C)C(=O)O[C@H](C(C)C)C(=O)N(C)[C@@H](CC(C)C)C(=O)O[C@H](C(C)C)C(=O)N(C)[C@@H](CC(C)C)C(=O)O[C@H](C(C)C)C(=O)N1C [bassianolide]	5.29		0		5.86	0	0	0	6.71	5.77	12p	0	0	0	0					
Nc1nc(N)nc(Nc2ccc([As]3SCC(CO)S3)cc2)n1 (stereo not drawn) [Melarsoprol, melarsoprol]	4.54															8.15				
O=C(Cn1ccnc1[N+](=O)[O-])NCc1ccccc1 [Benznidazole, benznidazole]	< 3.42																5.18			
CC(C)C[C@H]1C(=O)O[C@H](C(C)C)C(=O)N(C)[C@@H](CC(C)C)C(=O)O[C@H](C(C)C)C(=O)N(C)[C@@H](CC(C)C)C(=O)O[C@H](C(C)C)C(=O)N1C [hexa-bassianolide]	5.20		0		5.45	0	10	0	6.50	5.90	14p		0	0	0			active	active	active
CC(C)[C@H]1C(=O)O[C@H](C(C)C)C(=O)N(C)[C@@H](C(C)C)C(=O)O[C@H](C(C)C)C(=O)N(C)[C@@H](C(C)C)C(=O)O[C@H](C(C)C)C(=O)N1C [enniatin B]	5.39				5.64	15P	15p		6.14	5.98	24		0	0	0					
